US10973840B2, “Methods of sensitizing tumor cells to weak base chemotherapeutic drugs” (SOCPRA SCIENCES SANTÉ ET HUMAINES S.E.C., priority 2017, dated 2021)
Like-named read-outs stand apart in the source and are kept apart here.

What was measured:
[1] = system: HT-1080 overexpressing NHE6^527-588 peptide; experiment: MTT cell viability assay in HT-1080 expressing NHE6^527-588 or scrambled peptide; assay type: cell-based, human; settings: for IC50: Homo sapiens, read-out: IC50 of doxorubicin
Experimental: peGFP-N3-NHE6 was generously provided by Hiroshi Kanazawa (Osaka University, Japan). pcDNA3-HA/NHE6 was constructed from peGFP-N3-NHE6. For this, the entire NHE6 coding sequence was excised with BamHI and EcoRI restriction enzymes and cloned in pcDNA3-HA vector. pcDNA3-HA/NHE6^527-588 was designed from pcDNA3-HA/NHE6 using the following primers: […]
HT-1080 cells were stably transfected with Polyethylenimine (PEI, MirusBio) and positive cells were selected with Geneticin™ (G418) at 400 μg/mL. In the case of MDA-MB-231 cells, plasmids were transfected using Lipofectamine™ 2000 ([…]) and G418 was added to cell cultures at a concentration of 2 mg/mL.
(§1) Cells (5×10^3) were cultured in 96-well plates and pre-incubated under 21% O2 or 1% O2 for 4 h following the addition of drugs for 72 h. Cell viability was measured using the 3-(4,5-dimethylthiazol-2-yl)-2,5-diphenyltetrazolium bromide (MTT) dye (Life Technologies) according to manufacturer's instructions. Because hypoxic conditions may affect the reduction of MTT to formazan, incubation of all cell cultures with MTT were performed under normoxic conditions. Each experiment was performed in triplicate and at least three independent experiments were performed. Log-scale dose-response data were plotted on a graph and a three-parameter non-linear regression was applied to determine IC50 values. For calculation of the IC50s, both normoxic and hypoxic drug-treated samples were normalized with their untreated counterpart.
The middle portion (position 527-588) of the NHE6 cytoplasmic tail has previously been reported to interact with RACK1^31. Stable HT-1080 cells expressing the NHE6^527-588 fragment or a scrambled counterpart were generated.

[2] = system: MDA-MB-231 breast cancer cells; experiment: MTT cell viability assay, MDA-MB-231; assay type: cell-based, human; settings: for IC50: Homo sapiens; for Fold change: MDA-MB-231, IC50 at 1% O2 to IC50 at 21% O2
Experimental: as §1
To assess the role of pH in hypoxia-induced resistance to anthracyclines, the human breast cancer MDA-MB-231 and fibrosarcoma HT-1080 cell lines were incubated in the presence or absence of the commonly used anthracycline drugs, doxorubicin (Dox), daunorubicin (Dau) and the anthracycline analog drug, mitoxantrone (Mtx), under hypoxic (1% O2) or normoxic (21% O2) conditions for 72 hours. Cell viability was then assessed using the MTT assay. The impact of extracellular pH on Dox uptake by HT-1080 was also assessed.

IC50 ([1]; HT-1080, HT-1080 expressing scrambled peptide (scr), 1% O2): 521 nM | IC50 ([1]; HT-1080, HT-1080 expressing scrambled peptide (scr), 21% O2): 117 nM | IC50 ([1]; HT-1080, HT-1080 overexpressing NHE6^527-588 peptide, 1% O2): 224 nM | IC50 ([1]; HT-1080, HT-1080 overexpressing NHE6^527-588 peptide, 21% O2): 137 nM | IC50 ([2]; MDA-MB-231, 72 h, MDA-MB-231, 1% O2, 72 h, read-out: IC50 of anthracyclines): 688 nM | IC50 ([2]; MDA-MB-231, 72 h, MDA-MB-231, 21% O2, 72 h, read-out: IC50 of anthracyclines): 125 nM | IC50 ([2]; MDA-MB-231, MDA-MB-231, 1% O2, Baf 100 nM or Cq 10 μM where combined, read-out: IC50 of doxorubicin, cells treated with neutralizing agents): 852 nM | IC50 ([2]; MDA-MB-231, MDA-MB-231, 21% O2, Baf 100 nM or Cq 10 μM where combined, read-out: IC50 of doxorubicin, cells treated with neutralizing agents): 168 nM
SMILES: COc1cccc2c1C(=O)c1c(O)c3c(c(O)c1C2=O)C[C@@](O)(C(=O)CO)C[C@@H]3O[C@H]1C[C@H](N)[C@H](O)[C@H](C)O1 [Dox, doxorubicin]
Fold ([1]; NHE6^527-588, 1% O2 vs 21% O2): 1.6 fold | Fold ([1]; scr, 1% O2 vs 21% O2): 4.4 fold | Fold change [2]: 5.5 fold | Fold change ([2]; Baf 100 nM or Cq 10 μM where combined): 5.1 fold
